Measurements as given in patent US20090047655A1, “Method Of Screening Candidate Drug” (priority 2004, published 2009).
Like-named read-outs stand apart in the source and are kept apart here.

How the values were obtained:
[1] = in vivo; settings: mouse, in vivo
Source text: (§1) As for the chimeric mice, chimeric mice produced by Hiroshima Prefectural Institute of Industrial Science and Technology or PhoenixBio Co., Ltd. were used. To be more specific, mice in which human hepatocytes were engrafted and proliferated in the mouse liver were produced by transplanting human hepatocytes (IVT079, purchased from In Vitro Technology Inc., or BD51, purchased from BD Gentest Inc.) into the spleen of uPA(+/+)/SCID mice, which are mice having hepatic impairment and immunodeficiency. Mice in which 70% or more of the mouse liver had been replaced with human hepatocytes (high-replacement chimeric mice) and low-replacement chimeric mice in which although human hepatocytes had been transplanted, the replacement ratio was almost 0%, or untransplanted mice (mice with no replacement) were used (3 mice in each group). Further, as a control, 3 uPA(−/−)/SCID mice were used.
(§2) The concentration for administration of tolbutamide which is a standard drug for CYP2C9 was […]., and 4.175 mg of tolbutamide was weighed out and suspended in 1 ml of a CMC liquid in an agate mortar, and a 4.175 mg/ml suspension which is 5 times as high as the concentration for administration was prepared.
(§3) To the high-replacement chimeric mice, low-replacement chimeric mice (or mice with no replacement) and uPA(−/−)/SCID mice (3 mice in each group), 5 compounds were simultaneously administered orally by gavage or intravenously. The blood was collected from the tail vein of each mouse in an amount of 15 μl each at 0.25 (only intravenous administration), 0.5, 1, 2, 4 (only oral administration) and 8 hours after administration. Then, the blood was centrifuged at 3,500 rpm for 5 minutes, and the serum (supernatant) was collected and stored in a freezer at −30° C.
(§4) The serum samples were transported to Sumika Chemical Analysis Service, Ltd. while keeping it in dry ice, and subjected to measurement by LC-MS/MS according to the following procedure.
(§5) With regard to a liquid chromatograph, SIL-HTC and LC-10A series (Shimadzu Corporation) were used, and as a column, Synergi 4μ Polar-RP 80A, 150 mm (length)×2.00 mm (inner diameter), 4 μm (Phenomenex Inc.) was used at 30° C. As a mobile phase, methanol/a 10 mmol/l ammonium acetate solution/acetic acid (700/300/2, v/v/v) was used, and a flow rate was set at 0.2 ml/min. An injection volume was set at 2 μl, a measurement time was set at 10 min, and the temperature of an autosampler was set at 4° C. As a mass spectrometer, Tandem Mass Spectrometer API 4000 (Applied Biosystems/MDS SCIEX Inc.) was used. As API interface, Turbo V (ESI probe) was used, and as Ionization mode, Positive ion detection mode was used.
To Eppendorf tubes in which 5 μl of samples to be measured (serum) were contained, 100 μl of methanol was added, and 10 μl of 1 μg/ml of I.S. standard solution was added thereto, and then, the mixtures were thoroughly mixed by an ultrasonic treatment and a vortex mixer. The resulting mixtures were centrifuged (15,000 rpm, 5 min, room temperature), and the resulting supernatants were subjected to centrifugal filtration (10,000 rpm, 2 min, room temperature) with a filter, and the resulting filtrates were used as injection samples for LC-MS/MS.
(§6) The determined values of the drug concentration in the serum were calculated from the peak area ratio obtained by the LC-MS/MS measurement of the samples for addition calibration curve. […] From the graphs, the peak serum concentration (Cmax), half-life (t1/2), area under the curve (AUC), bioavailability and clearance were analyzed, and pharmacokinetics in human was predicted.

[2] = mouse, in vivo
Source text: as §1, §2, §3, §4, §5
To Eppendorf tubes in which 5 μl of samples to be measured (serum) were contained, 100 μl of methanol was added, and 10 μl of 1 μg/ml of I.S. standard solution was added thereto, and then, the mixtures were thoroughly mixed by an ultrasonic treatment and a vortex mixer. […]
as §6

[3] = system: CYP2D6; experiment: in vivo; settings: uPA(+/+)/SCID, mouse, po
Description: (§7) As for the chimeric mice, chimeric mice produced in PhoenixBio Co., Ltd. were used. To be more specific, 3 mice in which human hepatocytes were engrafted and proliferated in the mouse liver were produced by transplanting human hepatocytes (BD51, purchased from BD Gentist Inc.) into the spleen of uPA(+/+)/SCID mice, which are mice having hepatic impairment and immunodeficiency.
(§8) Paroxetine was dissolved in Milli-Q water (using a bath-type ultrasonic device) and prepared to give a final concentration of 6 mg/ml. The prepared drug was intraperitoneally administered to the mice at a dose of 5 μl/g b.w. (30 mg/kg b.w./day).
(§9) To the high-replacement chimeric mice, paroxetine was intraperitoneally administered for 3 days. Then, in the same manner as in Example 1, 5 compounds were simultaneously administered orally by gavage, the blood was collected over time, and the serum was stored.
(§10) The determination and analysis of drugs in the serum were carried out in the same manner as in Example 1.
(§11) The determined values of the drug concentration in the serum were calculated from the peak area ratio obtained by the LC-MS/MS measurement of the samples for addition calibration curve. […] From the graphs, Cmax, t1/2 and AUC were analyzed.

[4] = biological target: CYP1A2 (Homo sapiens, UniProt P05177); experiment: Inhibition of metabolic activity by paroxetine in high-replacement chimeric mouse (marker caffeine); type: in vivo; settings: paroxetine 30 mg/kg b.w./day i.p. for 3 days, donor BD51
Chain of CYP1A2 (P05177 whole entry): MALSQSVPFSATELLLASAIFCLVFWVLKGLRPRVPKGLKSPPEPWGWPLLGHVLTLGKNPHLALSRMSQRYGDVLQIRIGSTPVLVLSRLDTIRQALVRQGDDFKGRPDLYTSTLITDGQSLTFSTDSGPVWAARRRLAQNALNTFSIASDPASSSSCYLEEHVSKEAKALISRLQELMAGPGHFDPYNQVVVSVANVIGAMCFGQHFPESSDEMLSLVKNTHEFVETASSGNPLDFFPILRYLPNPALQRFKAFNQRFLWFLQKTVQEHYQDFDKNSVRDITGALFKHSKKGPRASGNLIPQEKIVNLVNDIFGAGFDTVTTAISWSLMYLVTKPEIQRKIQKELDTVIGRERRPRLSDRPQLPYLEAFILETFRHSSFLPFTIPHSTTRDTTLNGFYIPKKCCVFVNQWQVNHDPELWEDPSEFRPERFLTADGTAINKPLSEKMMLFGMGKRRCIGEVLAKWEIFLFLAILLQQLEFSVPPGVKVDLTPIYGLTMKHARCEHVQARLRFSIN
Description: as §7, §8, §9, §10, §11

[5] = biological target: T1, CYP2C19 (Homo sapiens, UniProt P33261); experiment: Inhibition of metabolic activity by paroxetine in high-replacement chimeric mouse (marker omeprazole); type: in vivo; settings: paroxetine 30 mg/kg b.w./day i.p. for 3 days, donor BD51
T1 construct: human hepatocytes were engrafted and proliferated in the mouse liver; host or cells: human donor hepatocytes BD51 engrafted in the liver of uPA(+/+)/SCID mice (high-replacement chimeric mice, PhoenixBio)
T1 sequence (P33261 whole entry): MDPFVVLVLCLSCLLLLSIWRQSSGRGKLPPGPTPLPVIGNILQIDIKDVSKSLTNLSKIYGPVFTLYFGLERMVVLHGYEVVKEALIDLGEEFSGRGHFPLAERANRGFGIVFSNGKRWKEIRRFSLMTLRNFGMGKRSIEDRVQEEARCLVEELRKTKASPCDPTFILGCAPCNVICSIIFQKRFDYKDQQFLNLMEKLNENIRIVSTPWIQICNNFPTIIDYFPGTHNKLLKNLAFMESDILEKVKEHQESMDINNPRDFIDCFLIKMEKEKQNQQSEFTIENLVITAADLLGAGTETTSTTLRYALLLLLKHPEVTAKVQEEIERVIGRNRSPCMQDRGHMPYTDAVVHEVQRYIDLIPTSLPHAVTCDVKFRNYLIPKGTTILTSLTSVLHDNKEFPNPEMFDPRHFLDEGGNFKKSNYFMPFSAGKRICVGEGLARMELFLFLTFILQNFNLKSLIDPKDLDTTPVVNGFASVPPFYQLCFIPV
Description: as §7, §8, §9, §10, §11

[6] = biological target: T2, CYP3A4 (Homo sapiens, UniProt P08684); experiment: Inhibition of metabolic activity by paroxetine in high-replacement chimeric mouse (marker erythromycin); type: in vivo; settings: paroxetine 30 mg/kg b.w./day i.p. for 3 days, donor BD51
T2 construct: human hepatocytes were engrafted and proliferated in the mouse liver; host or cells: human donor hepatocytes BD51 engrafted in the liver of uPA(+/+)/SCID mice (high-replacement chimeric mice, PhoenixBio)
T2 sequence (P08684 whole entry): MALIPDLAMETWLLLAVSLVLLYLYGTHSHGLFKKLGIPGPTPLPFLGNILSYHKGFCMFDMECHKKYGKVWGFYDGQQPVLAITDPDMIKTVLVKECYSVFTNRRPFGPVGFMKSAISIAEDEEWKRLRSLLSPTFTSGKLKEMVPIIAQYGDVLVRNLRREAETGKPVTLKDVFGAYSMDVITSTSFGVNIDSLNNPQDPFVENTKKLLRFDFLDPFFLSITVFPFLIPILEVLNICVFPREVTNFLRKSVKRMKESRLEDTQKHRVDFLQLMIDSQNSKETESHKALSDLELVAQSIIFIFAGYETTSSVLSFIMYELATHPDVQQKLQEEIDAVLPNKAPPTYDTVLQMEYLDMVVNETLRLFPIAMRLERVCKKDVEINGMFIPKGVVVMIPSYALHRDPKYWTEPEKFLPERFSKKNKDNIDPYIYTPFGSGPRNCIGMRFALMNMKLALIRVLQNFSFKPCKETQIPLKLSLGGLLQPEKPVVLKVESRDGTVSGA
Description: as §7, §8, §9, §10, §11

[7] = uPA(+/+)/SCID, po, t 1/2 Elimination phase
[8] = uPA(−/−)/SCID, iv, t 1/2 Distribution phase
[9] = uPA(−/−)/SCID, iv, t 1/2 Elimination phase

| Compound | half-life [1, 7] [h] | AUC ([1]; uPA(−/−)/SCID, iv, AUC) [ng·h/mL] | half-life [1, 8] [h] | half-life [1, 9] [h] | AUC ([1]; uPA(−/−)/SCID, po, AUC) [ng·h/mL] | bioavailability ([1]; uPA(−/−)/SCID, po) [%] | Cmax ([1]; uPA(−/−)/SCID, po) [ng/mL] | AUC ([2]; uPA(+/+)/SCID) [ng·h/mL] | AUC [3] [ng·h/mL] | half-life ([3]; t 1/2 Distribution phase) [h] | half-life ([3]; t 1/2 Elimination phase) [h] | AUC in high-replacement chimeric mice compared with low-replacement chimeric mice [1] | AUC ([1]; uPA(+/+)/SCID, iv) [ng·h/mL] | t 1/2 Distribution phase ([1]; uPA(+/+)/SCID, iv) | AUC ([1]; uPA(+/+)/SCID, iv, AUC) [ng·h/mL] | half-life ([1]; uPA(+/+)/SCID, iv, t 1/2 Distribution phase) [h] | AUC in high-replacement chimeric mice compared with low-replacement chimeric mice [2] | inhibition of the metabolic activity of CYP1A2 [4] | inhibition of the metabolic activity of CYP2C19 [5] | inhibition of the metabolic activity of CYP3A4 [6] |
| --- | --- | --- | --- | --- | --- | --- | --- | --- | --- | --- | --- | --- | --- | --- | --- | --- | --- | --- | --- | --- |
| COc1ccc2[nH]c([S+]([O-])Cc3ncc(C)c(OC)c3C)nc2c1 (centres unmarked) [Omeprazole, omeprazole] | 1.03 | 840 | 0.24 | 0.971 | 114 | 1.36 | 94 | 322 | 964 | 0.3 | 1.55 | – | – | – | – | – | – | – | – | – |
| CCCCNC(=O)NS(=O)(=O)c1ccc(C)cc1 [Tolbutamide, tolbutamide] | 4.3 | 11500 | 2.84 | 2.56 | 95300 | 82.9 | 16900 | – | 115000 | 3.31 | – | significantly lower | 20600 | 0.865^#3 hr | 16800 | 0.982 | significantly lower | – | – | – |
| Fc1ccc([C@@H]2CCNC[C@H]2COc2ccc3c(c2)OCO3)cc1 [paroxetine, Paroxetine] | – | – | – | – | – | – | – | – | – | – | – | – | – | – | – | – | – | inhibition | inhibition | inhibition |
